{"source": "paper PMC8165695", "about": "(Journal of Medicinal Chemistry, 2021)", "key": {"[1]": {"biological_target": "T1, May1 (Cryptococcus neoformans, UniProt J9VS02)", "T1 sequence (J9VS02 80-434 limits assumed)": "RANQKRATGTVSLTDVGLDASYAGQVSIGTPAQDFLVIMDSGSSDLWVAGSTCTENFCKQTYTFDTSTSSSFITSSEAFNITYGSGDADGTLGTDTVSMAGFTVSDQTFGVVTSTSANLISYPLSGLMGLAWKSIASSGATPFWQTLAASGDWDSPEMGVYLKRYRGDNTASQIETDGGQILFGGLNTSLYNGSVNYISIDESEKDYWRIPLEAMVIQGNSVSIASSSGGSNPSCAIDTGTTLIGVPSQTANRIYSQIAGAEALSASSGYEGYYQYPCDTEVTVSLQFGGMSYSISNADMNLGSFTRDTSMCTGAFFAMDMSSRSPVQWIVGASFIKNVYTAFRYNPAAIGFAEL", "experiment": "May1 Ki determination, fluorometric assay with IQ-2 substrate", "assay_type": "biochemical"}, "[2]": {"tested_on": "C. neoformans strains H99 and may1Δ", "experiment": "Yeast culture activity assay", "assay_type": "cell-based, Cryptococcus neoformans", "settings": "for terminal culture density of yeast: 48 h, 0.1, 1.0, 10 or 50 μM compound"}, "[3]": {"tested_on": "HepG2", "experiment": "Cytotoxicity, CellTiter-Glo 2.0 Cell Viability Assay", "assay_type": "cell-based, human", "settings": "HepG2 cell line; comparators darunavir, amprenavir, indinavir (ref 40)"}, "[4]": {"biological_target": "HIV-1 Pr drug resistance-associated mutants", "settings": "cited from earlier work"}, "[5]": {"tested_on": "HIV-1 Pr wild-type", "settings": "cited from earlier work"}}, "note": "Where a SMILES comes first, the peptide text is derived from it. [ ]: non-standard residue; d: D form. The star is where a group is joined. Sta = CC(C)C[C@H](N)[C@@H](O)CC(=O)O; Isovaleryl = CC(C)CC(=O)*", "data": [{"compound": "CC(C)CC(=O)N[C@H](C(=O)N[C@H](C(=O)N[C@@H](CC(C)C)[C@@H](O)CC(=O)N[C@@H](C)C(=O)N[C@@H](CC(C)C)[C@@H](O)CC(=O)O)C(C)C)C(C)C", "note": "[PepA, pepstatin A] (Isovaleryl-VV[Sta]A[Sta]-OH)", "values": [{"measurement": "Ki", "setting": "[1]", "result": "1.3 ± 0.1", "unit": "nM"}]}, {"compound": "CCCC[C@H](NC(=O)[C@H](CCC(=O)O)NC(=O)C[C@H](O)[C@H](Cc1ccccc1)NC(=O)OCc1ccccc1)C(N)=O", "note": "[Compound 4a, (S)-5-(((S)-1-amino-1-oxohexan-2-yl)amino)-4-((3S,4S)-4-(((benzyloxy)carbonyl)amino)-3-hydroxy-5-phenylpentanamido)-5-oxopentanoic acid]", "values": [{"measurement": "terminal culture density of yeast", "setting": "[2]; H99, YNB minimal medium", "result": "dose-dependent reductions in terminal culture density"}]}, {"compound": "CC(C)[C@H](NC(=O)[C@H](CCC(=O)O)NC(=O)C[C@H](O)[C@H](Cc1ccccc1)NC(=O)OCc1ccccc1)C(N)=O", "note": "[Compound 3a, (S)-5-(((S)-1-amino-3-methyl-1-oxobutan-2-yl)amino)-4-((3S,4S)-4-(((benzyloxy)carbonyl)amino)-3-hydroxy-5-phenylpentanamido)-5-oxopentanoic acid]", "values": [{"measurement": "terminal culture density of yeast", "setting": "[2]; H99, YNB minimal medium", "result": "dose-dependent reductions in terminal culture density"}]}, {"compound": "NC(=O)[C@H](CCc1ccccc1)NC(=O)[C@H](CCC(=O)O)NC(=O)C[C@H](O)[C@H](Cc1ccccc1)NC(=O)OCc1ccccc1", "note": "[Compound 13a, (S)-5-(((S)-1-amino-1-oxo-4-phenylbutan-2-yl)amino)-4-((3S,4S)-4-(((benzyloxy)carbonyl)amino)-3-hydroxy-5-phenylpentanamido)-5-oxopentanoic acid]", "values": [{"measurement": "cytotoxicity compared with clinically used protease inhibitors", "setting": "[3]", "result": "on par with or lower than that of clinically used protease inhibitors"}, {"measurement": "Ki for three drug resistance-associated HIV-1 Pr mutants", "setting": "[4]", "result": "0.024 to 0.32", "unit": "nM"}, {"measurement": "inhibition of wild-type HIV-1 Pr (in words)", "setting": "[5]", "result": "potent, subnanomolar inhibitor"}, {"measurement": "terminal culture density of yeast at 50 μM", "setting": "[2]; H99, YNB minimal medium, 48 h, 50 μM", "result": "nearly phenocopying the may1Δ mutant"}, {"measurement": "terminal culture density of yeast", "setting": "[2]; H99, YNB minimal medium", "result": "dose-dependent reductions in terminal culture density"}, {"measurement": "culture density during logarithmic phase growth", "setting": "[2]; H99, unbuffered YNB, 50 μM", "result": "achieved similar densities to 1b- or DMSO-treated controls during the logarithmic phase growth"}, {"measurement": "saturation density phenotype in buffered medium", "setting": "[2]; YNB with 50 mM MES, pH 6.5, 50 μM", "result": "eliminated the saturation density phenotype"}, {"measurement": "culture density of may1Δ yeast", "setting": "[2]; may1Δ strain, unbuffered YNB, 50 μM", "result": "did not further reduce culture densities during either the logarithmic or the stationary phase"}]}, {"compound": "CC(=O)N[C@H](C(=O)N[C@H](C(=O)N[C@@H](CC(C)C)[C@@H](O)CC(=O)N[C@@H](C)C(=O)N[C@@H](CC(C)C)[C@@H](O)CC(=O)O)C(C)C)C(C)C", "note": "[acetyl pepstatin] (Ac-VV[Sta]A[Sta]-OH)", "values": [{"measurement": "Ki", "setting": "[1]", "result": "3.3 ± 0.1", "unit": "nM"}]}]}
